This is an account of results in ChEMBL document CHEMBL3507680, “University of Dundee, Gates Library screen for HepG2 cell viability”.

The nature of the data set: Human HepG2 cell viability assay in 384 well format. The arrangement: dose 125 nL, time 70.5 hour; concentration not given beside the values. The settings on record: HepG2 cells, read-out: Inhibition. The class given is toxicity, cell-based.
`CCn1cnnc1C1CCN(C(=O)c2c(C)oc(C)c2C)CC1`: the cytotoxicity at 70.5 h is 0.3%. With `COc1cccc(CN(C)C(C)C(=O)Nc2nc(C)c(C)s2)c1` (stereo not given), the cytotoxicity at 70.5 h is -11.4%.

Regarding `Cc1ccc(CNC(=O)CN(CCC(N)=O)c2ccc(F)cc2)cc1`, the cytotoxicity at 70.5 h was -3.51%. In the case of `CC(C)c1noc(-c2ccc(NCc3noc(C(C)C)n3)nc2)n1` it was -5.44%; in that of `CN1CCN(C(=O)C2CN(Cc3cc4ccccc4o3)CCN2)CC1` (stereo not given), -3.72%. For `c1ncn(Cc2cn3c(n2)CN(CC2CCCCC2)CC3)n1`, the cytotoxicity at 70.5 h was -3.74%.

In the case of `CCNC(=O)[C@@H]1C[C@H](N)CN1Cc1ccc(Sc2ccc(C)cc2)o1`, the cytotoxicity at 70.5 h is -13.8%. Consider `CCC(c1ccc(F)cc1F)N1CCN(CCO)CC1` (stereo not given), for which the cytotoxicity at 70.5 h was -6.18%. In the case of `O=C(c1ccccc1)N1C[C@@H]2CCCO[C@@H]2[C@H](N2CCCC2)C1` it was -4.22%; in that of `CC(C)c1ncc2c(n1)CN(Cc1nc3c(F)cccc3[nH]1)CC2`, 21%; in that of `Fc1cnc(N2CCO[C@H]3CN(CC4CCCCC4)C[C@H]32)nc1`, 17.9%. In the case of `Cn1cc(NC(=O)Nc2cccc3cccnc23)ccc1=O` it was 53.3%; in that of `O=C(c1cccnc1)N1Cc2nccn2CC(COc2cccnc2)C1` (stereo not given), -15.2%; in that of `CN(Cc1ncnn1C1Cc2ccccc2C1)C1CCS(=O)(=O)C1` (stereo not given), -2.74%. With `CC(C)Nc1ncnc2c1CCN(C(=O)CN(C)C)CC2`, the cytotoxicity at 70.5 h is 36.6%. As for `Cc1ccc2[nH]c(CN3CC[C@@H](N4CCN(C)CC4)[C@H](O)C3)c(C)c2c1`, the cytotoxicity at 70.5 h was -6.53%. Turning to `O=C(CN1CCOCC1)Nc1cc(C(F)(F)F)ccc1-n1cccc1`, the cytotoxicity at 70.5 h is -3.59%. In the case of `CCCS(=O)(=O)N1CCN(CCCO)CC1` it was 0.836%.

Turning to `O=C(NC[C@H]1OC[C@@H](NC2CCC(F)(F)CC2)[C@@H]1O)C1CC1`, the cytotoxicity at 70.5 h was -7.04%.

Turning to `Cc1cc(NC(=O)C(C)Nc2cccc(COCc3ccco3)c2)no1` (stereo not given), the cytotoxicity at 70.5 h was -13.8%. In the case of `Cc1nc(N2CCCC2)nc2c1CCN(Cc1ccsc1)CC2` it was 6.56%; in that of `Cc1cc(C2NC(=O)CN2Cc2ccc(Br)cc2)cc(C)c1O` (stereo not given), 0.666%; in that of `O=C(NCC1CCC2(CCNCC2)CO1)c1ccno1` (stereo not given), 3.09%.

With `Cc1cc(C)n(CC2CCCN2Cc2nc(N)c3ccccc3n2)n1` (stereo not given), the cytotoxicity at 70.5 h was -3.06%. In the case of `CCc1nc2c(N3CCC4(CC3)CNC(=O)C4)ncnc2o1` it was -3.31%; in that of `CCn1nc(C)c2nn(CC(=O)NC3CCSCC3)cc21`, 6.6%. Regarding `CCOC(=O)CSc1nnc(C(N)CC(C)C)o1` (stereo not given), the cytotoxicity at 70.5 h is -7.86%. For `O=C(c1nnn(-c2ccc(C(F)(F)F)cc2)n1)N1CCC(O)CC1`, the cytotoxicity at 70.5 h is -2.52%.

Take `Nc1nc(N2CCCC(COc3ccc(F)cc3)C2)c2nc[nH]c2n1` (stereo not given): the cytotoxicity at 70.5 h was -7.35%. Regarding `COc1c(C2CCCN2C(=O)c2csc(C(C)C)n2)c(C)nn1C` (stereo not given), the cytotoxicity at 70.5 h was -12.3%.

Consider `CN1CCN(CCOc2ccc(NC(=O)c3cnc[nH]3)cc2)CC1`, for which the cytotoxicity at 70.5 h came out at 6.08%.

Turning to `COCCCN1CCc2cncnc2C1`, the cytotoxicity at 70.5 h was -18.2%. Consider `Cc1nc(N2Cc3cnn(Cc4ccc(F)cc4)c3C2)no1`, for which the cytotoxicity at 70.5 h stood at 13.6%. In the case of `CC(=O)N1CCC(CCNC(C)c2cc(C)cc(C)c2)CC1` (stereo not given) it was 3.75%; in that of `CC(=O)N(Cc1ncc(C)o1)C1CCN(Cc2cnc(C)s2)C1` (stereo not given), -6.82%. Turning to `CN1CC(C(=O)NCc2ccc(Br)cc2F)CC1=O` (stereo not given), the cytotoxicity at 70.5 h was -14.4%. Turning to `CC(=O)NCC(=O)N1CCc2c(CNc3ncccn3)cncc2C1`, the cytotoxicity at 70.5 h was -2.19%. As to `CC1COCCN1C(=O)NCCn1ccnc1` (stereo not given), the cytotoxicity at 70.5 h is -3.25%. For `CCCc1nnc(NC(=O)N2CCCC2c2ccncc2)s1` (stereo not given), the cytotoxicity at 70.5 h is 18.5%.

Consider `Cc1cc(CN(C)c2nc(-c3ccccn3)nc3c2CCNCC3)n[nH]1`, for which the cytotoxicity at 70.5 h is -11.1%. In the case of `CNC[C@H]1CC[C@H](c2cc(CN(C)S(=O)(=O)N(C)C)n(C)n2)CC1`, the cytotoxicity at 70.5 h was -3.44%.

Regarding `CN(C)C(=O)CCS(=O)(=O)Cc1cc(Cl)c2c(c1)OCO2`, the cytotoxicity at 70.5 h was -3.5%.

Take `CC[C@@H]1N(CC2CCOCC2)CCC[C@]12CCC(=O)N2`: the cytotoxicity at 70.5 h is -6.16%.

As to `CNc1nccc(C2CCCCN2Cc2cnn3cccnc23)n1` (stereo not given), the cytotoxicity at 70.5 h is -9.3%. In the case of `CCOCC(=O)N1C[C@@H](O)[C@H](N2CCN(c3ccccc3)CC2)C1` it was -3.95%; in that of `COc1ccccc1CCC(=O)N1CCCC(OCc2cccnc2)C1` (stereo not given), 26.8%; in that of `N#CC1COCCN1C(=O)c1ccc2[nH]ccc2c1` (stereo not given), 0.401%. Turning to `O=C(NCc1ccccc1CN1CCCC1=O)Nc1nccs1`, the cytotoxicity at 70.5 h is -9.69%. Take `Cc1cc(C)c(C#N)c(NCCSc2nncn2C)n1`: the cytotoxicity at 70.5 h was -6.87%.

Consider `COc1nc2c(cc1C(=O)NCCc1nc3ccccc3s1)CCC2`, for which the cytotoxicity at 70.5 h was -6.58%. As to `O=S(=O)(NCC(O)c1ccoc1)c1ccc(Br)s1` (stereo not given), the cytotoxicity at 70.5 h is -1.32%. `COC[C@]1(O)CCN(C(=O)c2cccc(CN(C)C)c2)CC1(C)C`: the cytotoxicity at 70.5 h was -5.34%. In the case of `O=S(=O)(CCCc1ccccc1)Cc1nnnn1C1CC1` it was -8.42%. In the case of `Cc1c(Br)cnn1C(C)C(=O)Nc1nncs1` (stereo not given) it was -14.2%; in that of `CCc1cc(N(C)Cc2cc[nH]n2)n2nc(C)c(C)c2n1`, -4.44%; in that of `O=S(=O)(NCc1cccnc1OC1CCCC1)N1CCOCC1`, -10.2%. Regarding `CN(Cc1ccon1)C(=O)C1CC(=O)N(Cc2ccncc2)C1` (stereo not given), the cytotoxicity at 70.5 h was -6.33%. In the case of `CC(=O)c1c(C)nn(S(=O)(=O)c2ccc(C)c(C)c2)c1C` it was -0.468%; in that of `Cc1ncccc1CNCC1CCN(CC(O)c2ccccc2)CC1` (stereo not given), -1.3%; in that of `CC(=O)c1sc(C(NC(=O)c2ccccc2)C2CC2)nc1C` (stereo not given), 8.83%. Consider `CN(C)C(=O)CN1CCN(C(=O)Cc2csc(-c3ncccn3)n2)CC1`, for which the cytotoxicity at 70.5 h was -4.31%. Regarding `COCCn1ccc(=O)c(OCC(=O)Nc2ccc(Br)cc2)c1C`, the cytotoxicity at 70.5 h is -7.36%. Regarding `Cc1ccc(CNCc2ccc(N3CCC(CO)CC3)nc2)c(C)c1`, the cytotoxicity at 70.5 h is -5.56%. In the case of `Cc1nnc([C@]23COC[C@H]2CN(S(=O)(=O)c2cccnc2)C3)o1` it was -5.13%; in that of `Cc1cnc(C(=O)N2CCCC(n3cncn3)C2)cn1` (stereo not given), -4.15%.

As for `Cc1oc(C(=O)O)cc1S(=O)(=O)Nc1cc(F)ccc1F`, the cytotoxicity at 70.5 h was 5.73%. For the compound `O=C(NCc1cc(=O)n2c(n1)CN(CC1CCOC1)CCC2)C1CC1` (stereo not given), the cytotoxicity at 70.5 h was -4.46%. On to `O=C(CO)N1CCC(CCc2ccnc(Nc3cnccn3)c2)CC1`, for which the cytotoxicity at 70.5 h was -2.09%. For `Cn1ccnc1CN1C[C@@H]2[C@@H](C1)OCC(=O)N2CC1CCCC1`, the cytotoxicity at 70.5 h is -21.4%. For `CCOCC1CN(Cc2ccccn2)Cc2nn(CC3CC3)cc21` (stereo not given), the cytotoxicity at 70.5 h was -4.99%. As to `COc1c(C2CCCN2C(=O)c2ccc(O)nc2)c(C)nn1C` (stereo not given), the cytotoxicity at 70.5 h is -8.59%. In the case of `CCc1cnc(CN(C)C(=O)NC2CCN(c3ccccc3)C2)s1` (stereo not given) it was -0.551%.

On to `Clc1cccc(Cl)c1CN(CCCN1CCOCC1)Cc1cccnc1`, for which the cytotoxicity at 70.5 h was -11.4%. Turning to `Cc1cnn(CC2CCCCN2Cc2nnc(-c3ccco3)o2)c1` (stereo not given), the cytotoxicity at 70.5 h is -4.33%. Consider `CN1CCN(c2cc(CNC(=O)c3cnccn3)ccn2)CC1`, for which the cytotoxicity at 70.5 h is -3.35%. Turning to `Cc1cc(CN2CCCC(Cn3cncn3)C2)on1` (stereo not given), the cytotoxicity at 70.5 h is -3.16%. In the case of `CC(C)Oc1ncc(C(=O)N2CCC(CC(N)=O)CC2)cc1Cl`, the cytotoxicity at 70.5 h is -8.52%. On to `CCOCc1nn(C)c2c1CN(CCO)CC2`, for which the cytotoxicity at 70.5 h was -6.16%.

`COc1ccc(CC(=O)N2CCN(Cc3ccco3)C[C@H]2C)cc1OC`: the cytotoxicity at 70.5 h is -5.07%. As for `CC(=O)N1CC(=O)N(c2ccccc2)CC12CCN(Cc1nccs1)C2` (stereo not given), the cytotoxicity at 70.5 h was -3.72%. In the case of `CC(C)(C)c1noc(CCCC(=O)N2CCCC(c3ccn[nH]3)C2)n1` (stereo not given) it was -2.4%; in that of `COc1ccccc1N1CCN(C(=O)CSC(C)C)C(C)C1` (stereo not given), -3.04%; in that of `CN(C)CCNC(=O)CC1CCN(c2cccnn2)CC1`, -2.25%.

On to `Cc1n[nH]c(C)c1Sc1ccccc1NC(=O)N1CCN(C)CC1`, for which the cytotoxicity at 70.5 h turned out to be 50.2%. Turning to `Cc1cc(C2CCCN(C(=O)COc3cccc(F)c3)C2)n[nH]1` (stereo not given), the cytotoxicity at 70.5 h was -5.26%. For the compound `COc1ccccc1NC(=O)c1cc2c([nH]c1=O)CCCC2=O`, the cytotoxicity at 70.5 h was -11.1%. Regarding `Cc1nccn1C1CCCN(C(=O)c2ccc(N(C)C)nc2)C1` (stereo not given), the cytotoxicity at 70.5 h is -7.86%. Consider `CCNCCOc1ccc(-c2cc(N)nc3[nH]ccc23)cc1`, for which the cytotoxicity at 70.5 h was -10.1%. In the case of `CCC(C)N1C(=O)c2ccc(C(=O)NCCc3c[nH]cn3)cc2C1=O` (stereo not given) it was -2.09%; in that of `Cc1ccc(OCC2CCCN(c3cc(C(N)=O)ccn3)C2)cc1` (stereo not given), 4.54%; in that of `CCN1CCN(c2cncc(Cl)n2)CC1`, 26.6%. In the case of `Cc1ccc(CCC(C)NC2CCN(C(N)=O)CC2)cc1` (stereo not given) it was -1.06%. In the case of `CCCn1nc(C)c2c(C(F)F)cc(=O)n(CC(=O)O)c21` it was -8.97%. With `Nc1nc(CCCNC(=O)C2CCCN(Cc3ccco3)C2)cs1` (stereo not given), the cytotoxicity at 70.5 h turned out to be 8.32%. As for `CCn1cnnc1C1CCN(C(=O)COc2ccccc2)CC1`, the cytotoxicity at 70.5 h was -9.36%.

Turning to `Cc1cccc(CN2CC[C@H]3OCC[C@@]3(C(=O)N3CCOCC3)C2)n1`, the cytotoxicity at 70.5 h is -4.06%.

On to `O=C(c1ccncc1F)N1CCc2onc(COc3cccnc3)c2C1`, for which the cytotoxicity at 70.5 h is -6.64%. Consider `Cc1nc(CN2CCN(C(=O)NC(C)Cn3ccnc3)CC2)cs1` (stereo not given), for which the cytotoxicity at 70.5 h was -0.978%.

Turning to `OCCn1ncc2c1CN(CC1CCOc3ccccc3C1)C2` (stereo not given), the cytotoxicity at 70.5 h was -0.723%. As to `c1ccc(Cc2noc(CN3CCCC3C3CCCCC3)n2)cc1` (stereo not given), the cytotoxicity at 70.5 h is 16.5%.
